From patent US20230278981A1, “DICHLOROPHENOL HSD17B13 INHIBITORS AND USES THEREOF” (INIPHARM, INC., priority 2020, published 2023) come the findings set out here.

In this experiment the target is HSD17B13 (Homo sapiens (Human), UniProt Q7Z5P4). Briefly: LC/MS estrone detection assay: conversion of estradiol to estrone by HSD17B13. The format is biochemical. To be noted: 4 μM estradiol, 6 mM NAD+, 30 nM HSD17B13 enzyme (E. coli expressed His-tagged), 2 hours at 26.5° C. Put shortly: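 His-tagged E. coli-expressed HSD17B13 (30 nM) with 4 μM estradiol and 6 mM NAD+ in 1 M potassium phosphate pH 7.4, 0.5% DMSO, 2 h at 26.5° C. Estrone and estradiol quantified by LC-MS/MS after MeCN quench with D4-estrone internal standard; activity as % of uninhibited enzyme, IC50 by four-parameter fit, duplicates.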
Chain of HSD17B13 (Q7Z5P4 20-300): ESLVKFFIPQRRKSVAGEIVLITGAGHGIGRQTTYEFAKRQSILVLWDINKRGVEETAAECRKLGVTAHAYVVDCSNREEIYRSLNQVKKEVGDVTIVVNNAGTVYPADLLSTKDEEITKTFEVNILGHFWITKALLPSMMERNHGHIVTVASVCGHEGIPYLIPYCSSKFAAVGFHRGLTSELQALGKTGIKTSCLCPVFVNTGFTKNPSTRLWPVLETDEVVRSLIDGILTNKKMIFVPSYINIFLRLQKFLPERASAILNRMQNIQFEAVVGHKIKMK

What is called IC50 is the concentration at which inhibition is half-maximal. A higher IC50 goes with weaker potency. Turning to `O=C(Nc1cccc2ncn(Cc3nncs3)c(=O)c12)c1cc(Cl)c(O)c(Cl)c1` [Example 39, N-(3-((1,3,4-thiadiazol-2-yl)methyl)-4-oxo-3,4-dihydroquinazolin-5-yl)-3,5-dichloro-4-hydroxybenzamide], the IC50 fell in the range of 1000 to 10000 nM.
With `O=C(Nc1ccc(Cl)c2ncn(Cc3ccccc3OC(F)(F)F)c(=O)c12)c1cc(Cl)c(O)c(Cl)n1` [Example 90, 4,6-dichloro-N-(8-chloro-4-oxo-3-(2-(trifluoromethoxy)benzyl)-3,4-dihydroquinazolin-5-yl)-5-hydroxypicolinamide] the figure was 100 to 500 nM.
`O=C(NCc1ccccc1OC(F)(F)F)C1CCCN1C(=O)c1cc(Cl)c(O)c(Cl)c1` (stereo not shown) [Example 128, 1-(3,5-dichloro-4-hydroxybenzoyl)-N-(2-(trifluoromethoxy)benzyl) pyrrolidine-2-carboxamide]: the IC50 is greater than 10000 nM.
Then `Cc1ccc(NC(=O)c2cc(Cl)c(O)c(Cl)c2)c2c(=O)n(Cc3ccccc3OC(F)(F)F)c(CF)nc12` [Example 152, 3,5-dichloro-N-(2-(fluoromethyl)-8-methyl-4-oxo-3-(2-(trifluoromethoxy)benzyl)-3,4-dihydroquinazolin-5-yl)-4-hydroxybenzamide], with 500 to 1000 nM; and `O=C(Nc1scnc1C(=O)NCc1ncccc1C(F)(F)F)c1cc(Cl)c(O)c(Cl)n1` [Example 196, 5-(4,6-dichloro-5-hydroxypicolinamido)-N-((3-(trifluoromethyl)pyridin-2-yl)methyl)thiazole-4-carboxamide], with 100 to 500 nM.
Then `O=C(Nc1cccc2ncn(Cc3ccccc3F)c(=O)c12)c1cc(Cl)c(O)c(Cl)c1` [Example 9, 3,5-dichloro-N-(3-(2-fluorobenzyl)-4-oxo-3,4-dihydroquinazolin-5-yl)-4-hydroxybenzamide], with 100 to 500 nM.
The compound `O=C(NCc1ccccc1OC(F)(F)F)C1CCCCN1C(=O)c1cc(Cl)c(O)c(Cl)n1` (stereo not shown) [Example 120, 1-(4,6-dichloro-5-hydroxypicolinoyl)-N-(2-(trifluoromethoxy)benzyl) piperidine-2-carboxamide] registered an IC50 of 1000 to 10000 nM.
With `COc1ccccc1Cn1cnc2cccc(NC(=O)c3cc(Cl)c(O)c(Cl)c3)c2c1=O` [Example 5, 3,5-dichloro-4-hydroxy-N-(3-(2-methoxybenzyl)-4-oxo-3,4-dihydroquinazolin-5-yl)benzamide], the IC50 lay in the range of 100 to 500 nM.
For `Cc1ccc(NC(=O)c2cc(Cl)c(O)c(Cl)n2)c2c(=O)n(Cc3cccnc3C(F)(F)F)c(C)nc12` [Example 147, 4,6-dichloro-N-(2,8-dimethyl-4-oxo-3-((2-(trifluoromethyl)pyridin-3-yl)methyl)-3,4-dihydroquinazolin-5-yl)-5-hydroxypicolinamide], the IC50 was in the range of 100 to 500 nM.
`O=C(Nc1ncsc1C(=O)NCc1ccccc1F)c1cc(Cl)c(O)c(Cl)c1` [Example 24, 4-(3,5-dichloro-4-hydroxybenzamido)-N-(2-fluorobenzyl)thiazole-5-carboxamide] displayed an IC50 of 1000 to 10000 nM.
`O=C(Nc1csc2ncn(Cc3ccccc3OC(F)(F)F)c(=O)c12)c1cc(Cl)c(O)c(Cl)c1` [Example 103, 3,5-dichloro-4-hydroxy-N-(4-oxo-3-(2-(trifluoromethoxy)benzyl)-3,4-dihydrothieno[2,3-d]pyrimidin-5-yl)benzamide] showed an IC50 of 100 to 500 nM.
The compound `O=C(Nc1cccc2ncn(C3(c4ccccc4F)CC3)c(=O)c12)c1cc(Cl)c(O)c(Cl)n1` [Example 72, 4,6-dichloro-N-(3-(1-(2-fluorophenyl)cyclopropyl)-4-oxo-3,4-dihydroquinazolin-5-yl)-5-hydroxypicolinamide] came in with an IC50 of 100 to 500 nM.
Compound `O=C(NCc1ccccc1OC(F)(F)F)C1CCCN1C(=O)c1cc(Cl)c(O)c(Cl)n1` (stereo not shown) [Example 127, 1-(4,6-dichloro-5-hydroxypicolinoyl)-N-(2-(trifluoromethoxy)benzyl) pyrrolidine-2-carboxamide] returned a half-inhibitory concentration (IC50) greater than 10000 nM.
